Where “and” joins values, the source holds several entries; their conditions need not be identical. Equal entries are not always repeated.
Tests used:
[1] = system: CBA mice with cyclophosphamide-induced hemo- and immunodepression; test: Cyclophosphamide-induced hemo- and immunodepression in mice; type: in vivo, mouse; settings: 5 mg/kg IP daily for 5 days
Method: The study was designed to evaluate the effect of a 5-day long administration of the test articles on the capability of the CP-treated murine splenocytes to produce IL-2 and GM-CSF in vitro. In addition, the number of blood leukocytes and lymphocytes and the bone marrow cellularity (number of karyocytes) were determined at 8 days after CP administration. Some animals receiving CP were then challenged with sheep red blood cells (SRBC), and the humoral immune response to the antigen was evaluated.
Male CBA mice (18 to 20 g body weight) were given a single intraperitoneal injection of CP in a dose of 50 mg/kg. […] Group description is represented below.
Injections were performed during 5 days: once a day, daily.
Twenty four hours after the completion of 5 day treatment course (on the 8th day after the CP injection), mice were euthanized and splenocyte cultures were aseptically prepared for assessment of spontaneous production of IL-2 and GM-CSF by the spleen lymphocytes in vitro.
Simultaneously, blood and marrow samples were collected for blood leukocyte and lymphocyte, and marrow nucleated cell counted,
Serum samples from immunized animals were tested on level of SRBC agglutinins (the day 8 after the CP injection, and the day 7 after the immunization).

[2] = system: CBA mice with radiation-induced hemo- and immunodepression; test: Radiation-induced hemo- and immunodepression in mice; type: in vivo, mouse; settings: mice irradiated 1 Gy, 5 mg/kg IP daily for 7 days, day 8 post-exposure
Method: The study was designed to evaluate efficacy of 7-day daily administration of the test articles (with the dosing started 2 hours post-exposure) on the capability of the splenocytes from mice exposed to radiation to produce IL-2 and GM-CSF in vitro. In addition, the number of blood leukocytes and lymphocytes and the spleen and bone marrow cellularity (number of karyocytes), as well as splenic and medullary colony-stimulating capacity, were determined at 8 days post-exposure.
Male CBA mice (18 to 20 g body weight) were irradiated with single dose of 180 kV X-rays filtered with 0.5 mm Cu (at 15 mA, distance—70 cm, duration 2 min. and 28 sec.).
The total absorbed dose comprised approximately 1 Gy. Five groups of animals (with no less than 12 mice in each) were formed. Group description is represented below.
Injections were performed during 7 days: once a day, daily.
Twenty four hours after the completion of 7 day treatment course (on the 8th day after the irradiation). mice were euthanized and splenocyte cultures were aseptically prepared for assessment of spontaneous production of IL-2 and GM-CSF by the spleen lymphocytes in vitro.
Simultaneously, blood, spleen and marrow samples were collected for blood leukocyte and lymphocyte, and spleen and marrow nucleated cell counting.
Additionally, hemopoietic colony formation ability of spleen and bone marrow cells was, assessed by the method of direct count of colony forming units (CFU) in the spleens of irradiated CBA mice receiving intravenously spleen or bone marrow cells obtained from animals of control or test groups.

[3] = cyclophosphamide-treated mice, day 8 after CP

Question: Which results are given for `N[C@@H](CCC(=O)N[C@@H](CS)C(=O)NCC(=O)O)C(=O)O` [GSH, γ-glutamyl-cysteinyl-glycine]?
Answer: SRBC agglutinin titer ([1]; cyclophosphamide-treated mice immunized with SRBC, day 7 after immunization): 1.94 log2 and 1.62 log2 and 2.09 log2; Blood leukocyte count [1, 3]: 5.2 ± 10^9/L and 6.3 ± 10^9/L and 6.2 ± 10^9/L; Blood lymphocyte count [1, 3]: 4.3 ± 10^9/L and 4.6 ± 10^9/L and 5.31 ± 10^9/L; Bone marrow nucleated cell number [1, 3]: 32.2 ± 10^6/L and 36.4 ± 10^6/L; IL-2 production by splenocytes [1, 3]: 17.2 U/mL and 15.3 U/mL and 20.3 U/mL; Blood leukocyte count [2]: 4.8 ± 10^9/L and 5.7 ± 10^9/L and 4.95 ± 10^9/L; Blood lymphocyte count [2]: 3.4 ± 10^9/L and 4.6 ± 10^9/L and 4.0 ± 10^9/L; Bone marrow CFU [2]: 22.1 and 25.6 and 25.3; Bone marrow nucleated cell number [2]: 17.2 ± 10^6/L and 24.7 ± 10^6/L and 22.5 ± 10^6/L; IL-2 production by splenocytes [2]: 8.6 U/mL and 9.3 U/mL and 9.9 U/mL; Spleen CFU [2]: 56.3 and 66.3 and 59.8; Spleen nucleated cell number [2]: 4.3 ± 10^7/L and 6.93 ± 10^7/L and 5.5 ± 10^7/L
